Measurements taken from patent publication US9056858B2, “Indazole and pyrazolopyridine compounds as CCR1 receptor antagonists” (Boehringer Ingelheim International GmbH, priority 2009, dated 2015).

Biological target: T1, CCR1 (Homo sapiens, UniProt P32246)
T1 construct: host or cells: Non-adherent cells
T1 sequence (P32246 1-355): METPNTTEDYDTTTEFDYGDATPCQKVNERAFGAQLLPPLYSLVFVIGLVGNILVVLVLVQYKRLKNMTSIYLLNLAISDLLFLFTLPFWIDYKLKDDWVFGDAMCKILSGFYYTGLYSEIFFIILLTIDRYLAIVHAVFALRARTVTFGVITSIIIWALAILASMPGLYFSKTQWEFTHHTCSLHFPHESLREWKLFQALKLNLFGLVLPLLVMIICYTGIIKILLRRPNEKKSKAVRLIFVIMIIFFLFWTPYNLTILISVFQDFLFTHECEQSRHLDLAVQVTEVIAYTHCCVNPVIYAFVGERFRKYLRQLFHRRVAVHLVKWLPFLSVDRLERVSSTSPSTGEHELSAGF
Experiment: functional cellular assay measuring calcium flux in CCR1 transfected cells (block of CCR1/MIP-1α interaction)
Assay type: cell-based
Details: cells stably expressing recombinant CCR1 and G-alpha-16, MIP-1alpha added at EC80
Experimental: Compounds are assessed for the ability to block the interaction of CCR1 and MIP-1α in a functional cellular assay measuring calcium flux in CCR1 transfected cells.
Non-adherent cells purchased from Chemicon Corporation (HTS005C), stably expressing recombinant CCR1 and G-alpha-16 are grown in RPMI 1640 medium (Mediatech 10-080-CM) supplemented with 10% FBS, 0.4 mg/mL Geneticin and penicillin/streptomycin. On the day of the assay, the cells are loaded with Calcium 4 dye (Molecular Devices R7448) with Probenecid (Invitrogen P346400) at 8E5 cells/mL for 1 hour at room temperature. After 1 hour, they are seeded in a 384-well tissue culture-treated plate at a density of 20,000 cells/well. Appropriately diluted test compound is added to the well to achieve a top concentration of 3,000 nM (diluted 4-fold with 10 doses total). The final concentration of DMSO is 1%. The buffer is HBSS (Invitrogen 14025) with 20 mM HEPES at pH 7.4. The cells incubate 30 minutes at 37 C and then 30 minutes at room temperature. The plates are transferred to the […] FDSS6000 where MIP-1alpha in 1% BSA is added at the EC80 final concentration. All plates must be read within 4 hours of the start of dye-loading. Wells +/− MIP-1alpha containing diluted DMSO instead of compound serve as the controls. Data are analyzed using Activity Base software.

Row | IC50 | SMILES
1 | 0.003 µM | NS(=O)(=O)c1cccc(C2(NC(=O)c3cncc4c3cnn4-c3ccc(F)cc3)CC2)c1 [1-(4-Fluoro-phenyl)-1H-pyrazolo[3,4-c]pyridine-4-carboxylic acid [1-(3-sulfamoyl-phenyl)-cyclopropyl]-amide]
2 | 0.109 µM | O=C(NC1(c2ccccc2)CC1)c1cncc2c1cnn2-c1ccc(F)cc1 [1-(4-Fluoro-phenyl)-1H-pyrazolo[3,4-c]pyridine-4-carboxylic acid (1-phenyl-cyclopropyl)-amide]
3 | 0.003 µM | O=C(NC1(c2cccc(Cl)c2)CC1)c1cncc2c1cnn2-c1ccc(F)cc1 [1-(4-Fluoro-phenyl)-1H-pyrazolo[3,4-c]pyridine-4-carboxylic acid [1-(3-chloro-phenyl)-cyclopropyl]-amide]
4 | 0.014 µM | CS(=O)(=O)c1cnc(C2(NC(=O)c3cncc4c3cnn4-c3ccc(F)cc3)CC2)nc1 [1-(4-Fluoro-phenyl)-1H-pyrazolo[3,4-c]pyridine-4-carboxylic acid [1-(5-methanesulfonyl-pyrimidin-2-yl)-cyclopropyl]-amide]
5 | 0.285 µM | CC(C)(C)OC(=O)NCc1ccnc(C2(NC(=O)c3cncc4c3cnn4-c3ccc(F)cc3)CC2)c1 [[2-(1-{[1-(4-Fluoro-phenyl)-1H-pyrazolo[3,4-c]pyridine-4-carbonyl]-amino}-cyclopropyl)-pyridin-4-ylmethyl]-carbamic acid tert-butyl ester]
6 | 0.01 µM | COC(=O)CCS(=O)(=O)c1ccc(C2(NC(=O)c3cncc4c3cnn4-c3ccc(F)cc3)CC2)cn1 [3-[5-(1-{[1-(4-Fluoro-phenyl)-1H-pyrazolo[3,4-c]pyridine-4-carbonyl]-amino}-cyclopropyl)-pyridine-2-sulfonyl]-propionic acid methyl ester]
7 | 0.0005 µM | O=C(NC1(c2ccnc(Br)c2)CC1)c1cncc2c1cnn2-c1ccc(F)cc1 [1-(4-Fluoro-phenyl)-1H-pyrazolo[3,4-c]pyridine-4-carboxylic acid [1-(2-bromo-pyridin-4-yl)-cyclopropyl]-amide]
8 | 0.062 µM | O=C(NC1(c2ccc(F)cc2)CCC1)c1cncc2c1cnn2-c1ccc(F)cc1 [1-(4-Fluoro-phenyl)-1H-pyrazolo[3,4-c]pyridine-4-carboxylic acid [1-(4-fluoro-phenyl)-cyclobutyl]-amide]
9 | 0.29 µM | NCc1ccnc(C2(NC(=O)c3cncc4c3cnn4-c3ccc(F)cc3)CC2)c1 [1-(4-Fluoro-phenyl)-1H-pyrazolo[3,4-c]pyridine-4-carboxylic acid [1-(4-aminomethyl-pyridin-2-yl)-cyclopropyl]-amide]
10 | 0.026 µM | Cc1cccc(C2(NC(=O)c3cncc4c3cnn4-c3ccc(F)cc3)CC2)c1 [1-(4-Fluoro-phenyl)-1H-pyrazolo[3,4-c]pyridine-4-carboxylic acid (1-m-tolyl-cyclopropyl)-amide]
11 | 0.005 µM | COc1cccc(C2(NC(=O)c3cncc4c3cnn4-c3ccc(F)cc3)CC2)c1 [1-(4-Fluoro-phenyl)-1H-pyrazolo[3,4-c]pyridine-4-carboxylic acid [1-(3-methoxy-phenyl)-cyclopropyl]-amide]
12 | 0.098 µM | COC(=O)C1(NC(=O)c2cccc(C3(NC(=O)c4cncc5c4cnn5-c4ccc(F)cc4)CC3)c2)CC1 [1-[3-(1-{[1-(4-Fluoro-phenyl)-1H-pyrazolo[3,4-c]pyridine-4-carbonyl]-amino}-cyclopropyl)-benzoylamino]-cyclopropanecarboxylic acid methyl ester]
13 | 0.265 µM | O=C(NC1(c2nncs2)CC1)c1cncc2c1cnn2-c1ccc(F)cc1 [1-(4-Fluoro-phenyl)-1H-pyrazolo[3,4-c]pyridine-4-carboxylic acid (1-1,3,4-thiadiazol-2-yl-cyclopropyl)-amide]
14 | 0.019 µM | O=C(NC1(c2ccc(Br)nc2)CC1)c1cncc2c1cnn2-c1ccc(F)cc1 [1-(4-Fluoro-phenyl)-1H-pyrazolo[3,4-c]pyridine-4-carboxylic acid [1-(6-bromo-pyridin-3-yl)-cyclopropyl]-amide]
15 | 0.006 µM | O=C(NC1(c2ccc(N3CCOCC3)nc2)CC1)c1cncc2c1cnn2-c1ccc(F)cc1 [1-(4-Fluoro-phenyl)-1H-pyrazolo[3,4-c]pyridine-4-carboxylic acid [1-(6-morpholin-4-yl-pyridin-3-yl)-cyclopropyl]-amide]
16 | 0.004 µM | CS(=O)(=O)c1cc(C2(NC(=O)c3cccc4c3cnn4-c3ccc(F)cc3)CC2)ccn1 [1-(4-Fluoro-phenyl)-1H-indazole-4-carboxylic acid [1-(2-methanesulfonyl-pyridin-4-yl)-cyclopropyl]-amide]

Row | IC50 | SMILES
17 | 0.081 µM | CC(C)(C)OC(=O)NCc1ccc(C2(NC(=O)c3cncc4c3cnn4-c3ccc(F)cc3)CC2)nc1 [[6-(1-{[1-(4-Fluoro-phenyl)-1H-pyrazolo[3,4-c]pyridine-4-carbonyl]-amino}-cyclopropyl)-pyridin-3-ylmethyl]-carbamic acid tert-butyl ester]
18 | 0.08 µM | COC(=O)[C@H](C)NC(=O)c1cccc(C2(NC(=O)c3cncc4c3cnn4-c3ccc(F)cc3)CC2)c1 [(S)-2-[3-(1-{[1-(4-Fluoro-phenyl)-1H-pyrazolo[3,4-c]pyridine-4-carbonyl]-amino}-cyclopropyl)-benzoylamino]-propionic acid methyl ester]
19 | 0.013 µM | O=C(NC1(c2cccc(F)c2)CC1)c1cncc2c1cnn2-c1ccc(F)cc1 [1-(4-Fluoro-phenyl)-1H-pyrazolo[3,4-c]pyridine-4-carboxylic acid [1-(3-fluoro-phenyl)-cyclopropyl]-amide]
20 | 0.011 µM | O=C(NC1(c2nc(C3CC3)no2)CC1)c1cncc2c1cnn2-c1ccc(F)cc1 [1-(4-Fluoro-phenyl)-1H-pyrazolo[3,4-c]pyridine-4-carboxylic acid [1-(3-cyclopropyl-1,2,4-oxadiazol-5-yl)-cyclopropyl]-amide]
21 | 0.705 µM | NCc1ccc(C2(NC(=O)c3cncc4c3cnn4-c3ccc(F)cc3)CC2)nc1 [1-(4-Fluoro-phenyl)-1H-pyrazolo[3,4-c]pyridine-4-carboxylic acid [1-(5-aminomethyl-pyridin-2-yl)-cyclopropyl]-amide]
22 | 0.017 µM | O=C(NC1(c2cc(Cl)ccn2)CC1)c1cncc2c1cnn2-c1ccc(F)cc1 [1-(4-Fluoro-phenyl)-1H-pyrazolo[3,4-c]pyridine-4-carboxylic acid [1-(4-chloro-pyridin-2-yl)-cyclopropyl]-amide]
23 | 0.004 µM | O=C(NC1(c2ccc(Br)cc2)CC1)c1cncc2c1cnn2-c1ccc(F)cc1 [1-(4-Fluoro-phenyl)-1H-pyrazolo[3,4-c]pyridine-4-carboxylic acid [1-(4-bromo-phenyl)-cyclopropyl]-amide]
24 | 0.0004 µM | O=C(NC1(c2cccc(C(F)(F)F)c2)CC1)c1cncc2c1cnn2-c1ccc(F)cc1 [1-(4-Fluoro-phenyl)-1H-pyrazolo[3,4-c]pyridine-4-carboxylic acid [1-(3-trifluoromethyl-phenyl)-cyclopropyl]-amide]
25 | 0.002 µM | CNC(=O)c1cccc(C2(NC(=O)c3cncc4c3cnn4-c3ccc(F)cc3)CC2)c1 [1-(4-Fluoro-phenyl)-1H-pyrazolo[3,4-c]pyridine-4-carboxylic acid [1-(3-methylcarbamoyl-phenyl)-cyclopropyl]-amide]
26 | 0.004 µM | CS(=O)(=O)c1ccc(C2(NC(=O)c3cncc4c3cnn4-c3ccc(F)cc3)CC2)o1 [1-(4-Fluoro-phenyl)-1H-pyrazolo[3,4-c]pyridine-4-carboxylic acid [1-(5-methanesulfonyl-furan-2-yl)-cyclopropyl]-amide]
27 | 0.028 µM | CNc1ccc(C2(NC(=O)c3cncc4c3cnn4-c3ccc(F)cc3)CC2)cn1 [1-(4-Fluoro-phenyl)-1H-pyrazolo[3,4-c]pyridine-4-carboxylic acid [1-(6-methylamino-pyridin-3-yl)-cyclopropyl]-amide]
28 | 0.088 µM | O=C(NC1(c2cccnc2)CC1)c1cncc2c1cnn2-c1ccc(F)cc1 [1-(4-Fluoro-phenyl)-1H-pyrazolo[3,4-c]pyridine-4-carboxylic acid (1-pyridin-3-yl-cyclopropyl)-amide]
29 | 0.031 µM | COc1ccnc(C2(NC(=O)c3cncc4c3cnn4-c3ccc(F)cc3)CC2)c1 [1-(4-Fluoro-phenyl)-1H-pyrazolo[3,4-c]pyridine-4-carboxylic acid [1-(4-methoxy-pyridin-2-yl)-cyclopropyl]-amide]
30 | 0.017 µM | COc1ccc(C2(NC(=O)c3cncc4c3cnn4-c3ccc(F)cc3)CC2)cc1 [1-(4-Fluoro-phenyl)-1H-pyrazolo[3,4-c]pyridine-4-carboxylic acid [1-(4-methoxy-phenyl)-cyclopropyl]-amide]
31 | 0.051 µM | COc1ccc(C2(NC(=O)c3cncc4c3cnn4-c3ccc(F)cc3)CCC2)cc1 [1-(4-Fluoro-phenyl)-1H-pyrazolo[3,4-c]pyridine-4-carboxylic acid [1-(4-methoxy-phenyl)-cyclobutyl]-amide]
